We go through seven molecules from patent US20060142395A1, “Modulation of intracellular calcium signaling by N-acylethanolamines” (University of North Texas Health Science Center, priority 2003, published 2006).

Where two headings read alike, the source gives them in different places.

Data set [1] addresses T1, type 2 IP3R from nuclei of HepG2 cells (Homo sapiens, UniProt Q14571).
T1 construct: biophysical properties of native type 2 IP3R isolated from cells; endogenous in cells; host or cells: HepG2 cells, nuclei / nuclear envelope membranes
The data set is described as follows: Planar lipid bilayer single channel recording of native type 2 IP3R. In kind it is biochemical. From the text:
Electrophysiological recording of ICCs is a well established technique used to measure the effects on calcium levels based on external stimuli (83, 115-117). The planar lipid bilayer technique has been used by the principal investigator to determine the function of ICCs in neurons and non-neuronal cells. The inventors isolated type 2 IP3R from nuclei of HepG2 cells using the same techniques described herein. These studies represent the first determination of the biophysical properties of native type 2 IP3R isolated from cells. All previous studies on type 2 IP3R used artificially expressed type 2 IP3R of cells that had been transfected with the respective cDNA (118-119). Single channel activity was examined using the Planar Lipid Bilayer Membrane technique. […] The lack of feedback inhibition by high concentrations of Ca^2+ is again similar to what has been observed in the recombinant type 2 IP3R (118, 121). […] Both the increased sensitivity to IP3 and the lack of Ca2+-induced inactivation distinguishes the type 2 IP3R from the well-characterized type 1 IP3R. By isolating the receptor with its associated proteins from a functional cellular environment, properties influenced by accessory proteins can be readily assessed with single channel electrophysiology. Data obtained from these experiments analyzing the single channel characteristics of ICCs will provide the biophysical information necessary to correlate intracellular signaling data with function in live cells and in vivo, as shown hereinbelow.
Planar lipid bilayer single channel electrophysiology. ER vesicles or artificial liposomes containing ICCs may be incorporated into planar lipid bilayers and channel activity may be recorded electrophysiologically with the planar lipid bilayer being equivalent to the plasma membrane patch of patch clamp electrophysiology. […] Proper insertion of the ICCs may be monitored by appropriate stimulation of channels on the cytosolic side (IP3R: Ca^2+, IP3; RyR: Ca^2+, caffeine, cADPR; pc-2: Ca^2+, activating membrane potential; 77, 83, 115-117, 141). […] Channel insertion and activity may be recorded with Ag/AgCl electrodes contacting the buffer filled compartments via KCl containing agarose bridges. Activity of a single channel protein can be monitored because it passes enough current to be measured electronically using an amplifier. […] Single channel conductance, voltage-dependence, dwell times and dependence on intracellular free Ca^2+ concentrations may be determined using standard methods in the presence of blockers of other ICCs (IP3R: no IP3, heparin; RyR: ryanodine, ruthenium red; pc-2: lack of activating membrane potential; 77, 83). […]

In another data set the target is type 1 IP3R (Homo sapiens, UniProt Q14643). Conditions: read-out: half maximal activation by IP3; cited from earlier work.
The target in the next data set is recombinant type 2 IP3R (Homo sapiens, UniProt Q14571). To be noted: read-out: EC50-value for IP3; cited from earlier work.
The target of another data set is T2, type 2 RyR (Mus musculus, UniProt E9Q401).
T2 construct: First, type 2 RyR were isolated from mouse; from tissue; host or cells: mouse
Briefly: Planar lipid bilayer single channel recording of RyR2. In kind it is biochemical. How it is done: NAEs differentially regulate the activity of ICCs. First, type 2 RyR were isolated from mouse. Briefly, single channel activity was examined using the Planar Lipid Bilayer Membrane technique. […] Channel activity was initiated by cytosolic Ca^2+ concentrations of 10 nM and higher.
(§1) Next, the effect of NAE 12:0 on mouse RyRs was determined. NAE 12:0 dose-dependently and isoform-specifically regulated the function of RyRs and represent the first pharmacological tool to differentially manipulate individual intracellular calcium channel isoforms (FIG. 5). […] Measured at sub-maximally activating Ca^2+ concentrations (RyR type I: pCa 6; RyR type II: pCa 6.5) 500 nM NAE 12:0 increased RyR type I activity by 42% whereas the same concentration decreased RyR type II activity by 64% (FIG. 5).
Planar lipid bilayer single channel electrophysiology. ER vesicles or artificial liposomes containing ICCs may be incorporated into planar lipid bilayers and channel activity may be recorded electrophysiologically with the planar lipid bilayer being equivalent to the plasma membrane patch of patch clamp electrophysiology. Lipid bilayer membranes may be formed in a hole in a Teflon partition, which separates two buffer filled compartments (phosphatidylethanolamine and phosphatidylserine, 3:1 w/w, dissolved in decane, 40 mg lipid per ml, Avanti Polar Lipids, Alabaster, Ala.). Vesicles containing pc-2 may be added to one compartment (corresponding to the cytosolic compartment) and fuse with the bilayer leaving the channels contained in the vesicle as the only electrical connection between the two compartments. The buffer on the cytosolic side of the channel is a 250 mM HEPES-Tris solution, pH 7.35 and a 250 mM HEPES, 55 mM Ba(OH)2 (or defined concentration of other current carrier, such as Ca(OH)2 or Mg(OH)2) solution, pH 7.35 constitutes the buffer on the trans side of the bilayer. Proper insertion of the ICCs may be monitored by appropriate stimulation of channels on the cytosolic side (IP3R: Ca^2+, IP3; RyR: Ca^2+, caffeine, cADPR; pc-2: Ca^2+, activating membrane potential; 77, 83, 115-117, 141). Improperly inserted channels that are less than 5% under the described conditions will not be included in the analysis. Channel insertion and activity may be recorded with Ag/AgCl electrodes contacting the buffer filled compartments via KCl containing agarose bridges. Activity of a single channel protein can be monitored because it passes enough current to be measured electronically using an amplifier. Altering the divalent cation species on the luminal side of the channel that carries the current will test ion selectivity. Single channel conductance, voltage-dependence, dwell times and dependence on intracellular free Ca^2+ concentrations may be determined using standard methods in the presence of blockers of other ICCs (IP3R: no IP3, heparin; RyR: ryanodine, ruthenium red; pc-2: lack of activating membrane potential; 77, 83). Modulating reagents may be added to the cytosolic side of the protein using a perfusion system (77, 83).

The target in the next data set is T3, RyR type I (Mus musculus, UniProt E9PZQ0).
T3 construct: from tissue; host or cells: mouse
Briefly: Planar lipid bilayer single channel recording of RyR type I. In kind it is biochemical. How it is done: as §1
Planar lipid bilayer single channel electrophysiology. ER vesicles or artificial liposomes containing ICCs may be incorporated into planar lipid bilayers and channel activity may be recorded electrophysiologically with the planar lipid bilayer being equivalent to the plasma membrane patch of patch clamp electrophysiology. […] Proper insertion of the ICCs may be monitored by appropriate stimulation of channels on the cytosolic side (IP3R: Ca^2+, IP3; RyR: Ca^2+, caffeine, cADPR; pc-2: Ca^2+, activating membrane potential; 77, 83, 115-117, 141). […] Channel insertion and activity may be recorded with Ag/AgCl electrodes contacting the buffer filled compartments via KCl containing agarose bridges. Activity of a single channel protein can be monitored because it passes enough current to be measured electronically using an amplifier. […]

Another data set deals with HT22 neurons. The data set is described as follows: Neuroprotection from L-glutamate toxicity (oxidative stress). In kind it is cell-based. The method, then:
NAE protects neurons in vitro from oxidative stress and glutamate toxicity. Next, the neuroprotective potential effects of NAEs were determined by culturing an immortalized hippocampal neuron cell line, HT 22, a model system used extensively. […] The mechanism of neurotoxicity is depletion of intracellular glutathione stores by inhibition of the cysteine transport and subsequently of glutathione synthesis.
The following assays may be used to assess neuronal viability and different stages of cell death. Optical assessment._Changes in cell morphology (apoptotic and necrotic morphology) and cell number may be used as an initial assessment of neurotoxicity and neuroprotection (see preliminary results in FIG. 8) using bright field differential interference contrast microscopy (Olympus IX-70, Olympus Corp., Japan; SimplePCI, C-imaging systems, Compix, Inc.).

Data set [2] has as its system primary cultures of hippocampal neurons. The data set is described as follows: Ca2+ imaging of L-glutamate induced Ca2+ transients (fluo-3). Conditions: 100 μM, 30 min preincubation, 100 μM L-Glutamate stimulus. In kind it is cell-based. How it is done: Both single wavelength (high sensitivity) and ratiometric (quantitative analysis) fluorescent Ca^2+ indicator dyes may be used. Various parameters may be studies, such as substrate adherence, dye concentration, and culture conditions, have been optimized for measuring acutely isolated neurons as well as neuronal cell lines, as will be known to the skilled artisan. NAEs influence intracellular Ca2+ homeostasis. Next, studies were conducted using primary cultures of hippocampal neurons to determine the effects of NAEs on intracellular Ca^2+ signaling. In these studies, the influence of a bath-based application of NAE 16:0 on intracellular Ca^2+ signaling of primary hippocampal neurons was analyzed. Hippocampal neurons like most other CNS neurons express RyR isoform 2. Some neurons also express RyR3 and RyR1 is found predominantly in glial cells.
FIGS. 6A to 6E demonsatrate the effect of NAEs on primary isolated and cultured hippocampal neurons were exposed to 100 μM L-Glutamate. FIG. 6A show the DIC image of a neuron and the fluorescence of the calcium indicator dye fluo-3 in the same cell at resting levels (FIG. 6B) and after L-Glutamate stimulation (FIG. 6C; scale bar: 25 μm). […] When the hippocampal neurons were stimulated with L-glutamate, this triggers an influx of extracellular Ca^2+ and a prolonged release of Ca^2+ from intracellular stores (FIG. 6D). […]

Data set [3] concerns ovariectomized (OVX) rats. The data set is described as follows: Middle cerebral artery occlusion, cerebral ischemia-reperfusion injury. The class given is in vivo.
In the next data set the test system is Akt. Conditions: primary hippocampal neurons, 100 μM, 60 min, total Akt unchanged.
For another data set, the system named is IP3R. Briefly: Western blot of phosphothreonine on IP3R in retina tissue in vitro. Conditions: 100 nM, 60 min, vs vehicle control. In kind it is cell-based, mouse. From the text:
Chemo-luminescence-enhanced Western blotting as a sensitive method to evaluate changes in intracellular signaling. A crucial factor in the determination of signaling proteins mediating neuroprotection is the specificity of reagents used for immunolocalization. As disclosed herein, a number of antibodies identified and characterized (Tables 1 and 2) and the conditions that allow full identification of signaling proteins mediating NAE responses through NAEs in neurons provided. Using the sensitive chemo-luminescence-enhanced Western blotting technique, changes were detected in signaling protein composition. Furthermore, immunodetection methods allow an analysis of the changes in the phosphorylation status of signaling proteins in experiments assessing the neuroprotective functions of NAEs. The high temporal and quantitative sensitivity of the assay system may be especially useful in our in vitro and in vivo model systems of neurotoxicity which will measure small but functionally relevant initial changes associated with neuronal damage. In additional studies, the effects of lipophilic hormones on the phosphorylation status of intracellular calcium channels was determined. […]
The high temporal and quantitative sensitivity of the assay system may be especially useful in our model systems which will produce functionally relevant initial changes associated with neuronal damage.
On the technique in general: In western blotting, separated proteins are transferred to a membrane and probed.

T2 sequence (E9Q401 whole entry): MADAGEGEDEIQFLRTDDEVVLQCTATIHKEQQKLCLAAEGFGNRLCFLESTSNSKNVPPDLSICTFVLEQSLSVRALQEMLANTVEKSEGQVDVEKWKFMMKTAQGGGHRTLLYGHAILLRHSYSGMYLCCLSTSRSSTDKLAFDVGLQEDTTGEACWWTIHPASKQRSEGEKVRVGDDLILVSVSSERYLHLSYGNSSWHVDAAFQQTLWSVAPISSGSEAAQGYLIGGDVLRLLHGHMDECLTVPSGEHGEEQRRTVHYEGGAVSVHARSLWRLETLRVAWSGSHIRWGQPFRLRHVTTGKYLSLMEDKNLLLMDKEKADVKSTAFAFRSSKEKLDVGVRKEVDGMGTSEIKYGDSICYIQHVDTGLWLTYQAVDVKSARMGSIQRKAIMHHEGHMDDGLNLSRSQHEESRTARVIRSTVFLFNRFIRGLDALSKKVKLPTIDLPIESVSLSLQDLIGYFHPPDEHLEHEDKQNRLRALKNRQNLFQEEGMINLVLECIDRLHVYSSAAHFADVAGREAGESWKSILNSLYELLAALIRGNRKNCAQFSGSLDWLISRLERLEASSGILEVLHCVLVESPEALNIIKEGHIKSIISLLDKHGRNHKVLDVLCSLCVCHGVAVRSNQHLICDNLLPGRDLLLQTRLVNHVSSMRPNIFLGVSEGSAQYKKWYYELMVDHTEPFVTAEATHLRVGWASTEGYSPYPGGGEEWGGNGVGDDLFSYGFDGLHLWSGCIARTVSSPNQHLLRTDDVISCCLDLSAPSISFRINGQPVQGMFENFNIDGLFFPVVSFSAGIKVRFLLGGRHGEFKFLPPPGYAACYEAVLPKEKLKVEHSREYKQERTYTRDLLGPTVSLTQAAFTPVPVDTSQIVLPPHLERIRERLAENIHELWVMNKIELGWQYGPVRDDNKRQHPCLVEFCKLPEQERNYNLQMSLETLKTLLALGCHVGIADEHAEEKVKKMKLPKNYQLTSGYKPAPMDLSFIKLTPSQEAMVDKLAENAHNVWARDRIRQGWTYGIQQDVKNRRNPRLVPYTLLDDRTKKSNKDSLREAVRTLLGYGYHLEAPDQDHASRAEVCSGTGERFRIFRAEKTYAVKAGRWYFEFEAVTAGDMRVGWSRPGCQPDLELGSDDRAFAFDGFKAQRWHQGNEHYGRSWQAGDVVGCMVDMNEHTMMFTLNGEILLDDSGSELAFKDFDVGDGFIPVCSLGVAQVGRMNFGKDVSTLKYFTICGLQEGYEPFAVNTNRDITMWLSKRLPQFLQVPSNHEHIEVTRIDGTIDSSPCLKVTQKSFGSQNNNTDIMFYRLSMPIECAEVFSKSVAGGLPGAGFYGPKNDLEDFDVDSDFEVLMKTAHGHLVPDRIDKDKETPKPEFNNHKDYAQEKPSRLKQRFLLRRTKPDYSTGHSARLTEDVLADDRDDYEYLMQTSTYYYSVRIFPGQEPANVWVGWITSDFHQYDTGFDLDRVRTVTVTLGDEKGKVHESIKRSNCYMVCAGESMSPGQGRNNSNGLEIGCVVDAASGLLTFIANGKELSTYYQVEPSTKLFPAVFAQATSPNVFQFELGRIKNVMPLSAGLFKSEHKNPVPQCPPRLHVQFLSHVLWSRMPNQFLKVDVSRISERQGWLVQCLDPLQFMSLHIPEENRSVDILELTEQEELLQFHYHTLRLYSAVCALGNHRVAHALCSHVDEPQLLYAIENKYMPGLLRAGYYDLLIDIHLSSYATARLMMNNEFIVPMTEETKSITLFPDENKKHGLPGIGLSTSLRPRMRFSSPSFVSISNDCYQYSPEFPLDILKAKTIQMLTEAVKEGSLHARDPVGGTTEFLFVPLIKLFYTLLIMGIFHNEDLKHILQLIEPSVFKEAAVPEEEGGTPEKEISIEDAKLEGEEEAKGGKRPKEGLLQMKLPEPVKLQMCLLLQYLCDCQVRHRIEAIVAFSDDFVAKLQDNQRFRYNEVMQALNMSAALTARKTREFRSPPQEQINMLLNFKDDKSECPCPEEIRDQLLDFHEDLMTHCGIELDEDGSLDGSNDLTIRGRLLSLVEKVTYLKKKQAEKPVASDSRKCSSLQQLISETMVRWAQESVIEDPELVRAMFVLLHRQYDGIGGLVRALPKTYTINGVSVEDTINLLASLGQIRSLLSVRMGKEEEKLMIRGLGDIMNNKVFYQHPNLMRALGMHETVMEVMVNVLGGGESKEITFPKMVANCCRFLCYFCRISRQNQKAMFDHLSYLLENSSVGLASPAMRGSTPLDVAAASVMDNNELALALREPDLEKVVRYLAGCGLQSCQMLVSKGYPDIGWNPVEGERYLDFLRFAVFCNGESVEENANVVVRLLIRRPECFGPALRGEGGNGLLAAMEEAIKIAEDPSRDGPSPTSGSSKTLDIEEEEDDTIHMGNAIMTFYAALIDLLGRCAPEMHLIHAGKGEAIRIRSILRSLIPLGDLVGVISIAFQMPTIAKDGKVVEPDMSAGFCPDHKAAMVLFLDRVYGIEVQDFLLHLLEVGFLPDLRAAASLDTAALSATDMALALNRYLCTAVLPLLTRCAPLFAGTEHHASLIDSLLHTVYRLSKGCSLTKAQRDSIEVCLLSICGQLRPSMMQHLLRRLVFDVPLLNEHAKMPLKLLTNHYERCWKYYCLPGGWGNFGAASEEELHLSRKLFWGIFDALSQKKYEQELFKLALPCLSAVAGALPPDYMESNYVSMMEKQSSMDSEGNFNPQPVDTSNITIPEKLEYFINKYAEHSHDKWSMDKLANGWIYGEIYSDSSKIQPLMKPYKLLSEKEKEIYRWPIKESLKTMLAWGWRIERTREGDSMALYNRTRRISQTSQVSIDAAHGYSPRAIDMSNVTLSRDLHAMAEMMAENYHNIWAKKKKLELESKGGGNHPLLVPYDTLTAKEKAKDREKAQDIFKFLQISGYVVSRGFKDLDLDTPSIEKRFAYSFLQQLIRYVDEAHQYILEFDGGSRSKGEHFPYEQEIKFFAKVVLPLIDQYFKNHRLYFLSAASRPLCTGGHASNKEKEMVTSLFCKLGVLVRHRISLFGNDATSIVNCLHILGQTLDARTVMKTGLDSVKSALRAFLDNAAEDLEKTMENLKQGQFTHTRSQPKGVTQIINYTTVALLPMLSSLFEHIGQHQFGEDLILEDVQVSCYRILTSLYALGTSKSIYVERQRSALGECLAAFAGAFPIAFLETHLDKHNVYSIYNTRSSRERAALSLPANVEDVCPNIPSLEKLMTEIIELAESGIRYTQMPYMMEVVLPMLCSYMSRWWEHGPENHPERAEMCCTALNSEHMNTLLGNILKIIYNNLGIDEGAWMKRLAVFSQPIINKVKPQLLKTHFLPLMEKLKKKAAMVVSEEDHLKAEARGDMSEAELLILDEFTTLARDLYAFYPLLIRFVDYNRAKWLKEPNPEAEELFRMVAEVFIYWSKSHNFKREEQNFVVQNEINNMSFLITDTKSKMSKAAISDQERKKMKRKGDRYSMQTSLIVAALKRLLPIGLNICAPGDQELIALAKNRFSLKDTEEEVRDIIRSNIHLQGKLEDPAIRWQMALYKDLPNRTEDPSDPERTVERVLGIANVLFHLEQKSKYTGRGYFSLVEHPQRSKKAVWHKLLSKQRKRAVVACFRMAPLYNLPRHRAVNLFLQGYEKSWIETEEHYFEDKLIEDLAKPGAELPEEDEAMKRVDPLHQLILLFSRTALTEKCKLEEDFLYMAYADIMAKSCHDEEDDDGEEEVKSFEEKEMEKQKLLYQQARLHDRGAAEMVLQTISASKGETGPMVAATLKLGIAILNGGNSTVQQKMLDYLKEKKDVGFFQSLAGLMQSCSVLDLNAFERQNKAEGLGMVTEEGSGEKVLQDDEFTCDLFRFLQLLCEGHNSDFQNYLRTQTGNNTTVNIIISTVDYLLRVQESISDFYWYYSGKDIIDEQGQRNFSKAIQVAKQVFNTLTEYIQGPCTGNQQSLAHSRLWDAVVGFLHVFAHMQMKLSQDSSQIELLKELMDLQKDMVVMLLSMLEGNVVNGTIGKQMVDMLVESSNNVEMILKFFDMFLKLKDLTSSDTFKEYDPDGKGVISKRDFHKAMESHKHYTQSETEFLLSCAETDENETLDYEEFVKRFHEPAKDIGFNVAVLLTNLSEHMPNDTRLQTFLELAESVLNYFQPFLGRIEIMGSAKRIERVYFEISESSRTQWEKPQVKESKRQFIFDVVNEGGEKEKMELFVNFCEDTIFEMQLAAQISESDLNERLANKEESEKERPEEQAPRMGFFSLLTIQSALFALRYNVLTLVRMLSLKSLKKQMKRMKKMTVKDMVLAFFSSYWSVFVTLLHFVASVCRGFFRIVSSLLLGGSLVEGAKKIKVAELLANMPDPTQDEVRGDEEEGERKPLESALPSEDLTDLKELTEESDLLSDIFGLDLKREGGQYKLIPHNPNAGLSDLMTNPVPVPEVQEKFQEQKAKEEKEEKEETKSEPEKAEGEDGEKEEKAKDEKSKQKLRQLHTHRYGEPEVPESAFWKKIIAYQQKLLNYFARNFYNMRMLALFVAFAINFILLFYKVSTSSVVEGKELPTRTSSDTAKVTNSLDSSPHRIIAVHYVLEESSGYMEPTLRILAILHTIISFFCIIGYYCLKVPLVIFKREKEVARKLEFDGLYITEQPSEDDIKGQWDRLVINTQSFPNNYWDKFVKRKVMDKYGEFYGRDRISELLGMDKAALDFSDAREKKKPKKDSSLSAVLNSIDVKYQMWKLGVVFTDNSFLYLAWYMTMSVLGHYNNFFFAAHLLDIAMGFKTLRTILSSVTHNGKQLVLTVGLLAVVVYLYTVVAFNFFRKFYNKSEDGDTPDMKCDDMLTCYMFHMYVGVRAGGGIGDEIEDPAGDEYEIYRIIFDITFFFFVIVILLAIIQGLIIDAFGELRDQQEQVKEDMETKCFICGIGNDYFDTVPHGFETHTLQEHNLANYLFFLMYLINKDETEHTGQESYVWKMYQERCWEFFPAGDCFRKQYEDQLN
Description for Akt: Western Blot Analysis. Cells may be lysed in lysis buffer (50 mM Tris (pH 7.4), 150 mM NaCl, 10% glycerol, 1 mM EGTA, 1 mM Na3VO4, 5 μM ZnCl2, 100 mM NaF, 1% Triton X-100, 10 μg/ml aprotinin, 1 μg/ml leupeptin, and 1 mM PMSF) and snap frozen in liquid nitrogen. Following homogenization, by trituration of the cells through a 22 Ga needle, and centrifugation at 100,000×g for 15 min at 4° C., resulting supernatants (lysates) are normalized for protein content (Lowry Assay, Biorad DC Protein Assay Kit). 25 mg of protein from each sample will then be separated on a 10% polyacrylamide gel (SDS/PAGE) followed by transfer onto PVDF membranes (0.22 mm pore size, Biorad, Hercules, Calif.). The membranes are then blocked overnight with 3% BSA (Fraction V; Sigma) or in Tris-buffered saline containing 0.2% Tween-20 (TBS-T) and probed with the appropriate antibody. […] For Akt phosphorylation, rabbit anti-phosphoAkt (Ser473) or rabbit anti-phosphoAkt(Thr308) (Cell Signaling Technology); for Akt protein assessment, rabbit anti-Akt (New England Biolabs). Binding of the primary antibody to the membrane may be detected using a secondary antibody (either goat anti-rabbit or goat anti-mouse), conjugated to horseradish peroxidase (HRP; 1:40,000, Pierce, Rockford, Ill.) and visualized using enzyme-linked chemiluminescence (ECL; Amersham, Arlington Heights, Ill.). […]

For the molecule `O=P(O)(O)O[C@@H]1[C@H](O)[C@H](O)[C@@H](OP(=O)(O)O)[C@H](OP(=O)(O)O)[C@H]1O` [IP3, inositol 1,4,5-trisphosphate], the “cytosolic IP3 concentration that initiates channel activity” value in data set [1] was at least 10 nM. The EC50 is 64 nM in data set [1] (native channel, data not shown, read-out: half maximal activation, dependence on cytosolic IP3 concentration); 500 nM on type 1 IP3R; 58 nM at recombinant type 2 IP3R.

In the case of `CCCCCCCCCCCC(=O)NCCO` [NAE 12:0], the “decrease of RyR type II activity” value on type 2 RyR (500 nM, pCa 6.5, n=3, FIG. 5) was found to be 64%. The “change of single channel conductance and amplitude” value on type 2 RyR (RyR 2) and on RyR type I (RyR 1) was “Neither NAE 12:0 nor NAE 18:2 changed” each time. Also, at RyR type I (500 nM, pCa 6, n=3, FIG. 5), the “increase of RyR type I activity” value is 42%. The “protection from L-glutamate toxicity” value with HT22 neurons is given as “dose-dependently protects”. Besides, the “effect of NAE alone on neuronal viability” value in the data set with HT22 neurons (HT-22 cells, even at high concentrations, no L-glutamate) is on record as “no effect”. In the data set on HT22 neurons (in the presence of the NAE), the “number of dead cells after L-glutamate insult” value is recorded as “significantly reduced”.

Regarding `CCCCCCCCCCCCCCCC(=O)NCCO` [NAE 16:0], on type 2 RyR (0.1 μM), the channel open frequency result is “reduced significantly”, the channel open probability entry was “reduction” and the dwell time entry is listed as “reduced significantly”. Moreover, the “channel activity at higher concentrations” value on type 2 RyR (higher, micromolar concentrations, FIG. 4) was “almost complete block”. Further, at type 2 RyR (in presence of NAE 16:0), the “single channel amplitude (not affected)” value is 3.9±0.1 pA and the “single channel conductance (not affected)” value is reported as 110±8 pS. Further, on type 2 RyR (pCa 6, n=3, FIG. 4), the RyR2 channel activity entry is reported as “dose-dependently decreased”. In [2], the “amplitude of Ca2+ transients” value is listed as “significantly decreased” and the “duration of Ca2+ transients” value is on record as “significantly decreased”. Further, the “effect of NAE alone on neuronal viability” value in the data set on HT22 neurons is recorded as “no effect”. The “potency in neuroprotection, comparison” value in the data set with HT22 neurons (FIG. 10 vs FIG. 9) is reported as “higher potency in neuroprotection than NAE 12:0”. The “protection of cerebral cortex and basal ganglia (infarct volume, TTC)” value in [3] (10 mg/kg sc, 1 hr MCAO, 24 hr reperfusion, N=7/group, P<0.05 vs OVX) was “protected”. The “protection of CNS tissue from MCA occlusion-induced ischemic damage” value in data set [3] (acute (sc 6 h prior and immediately before MCAO, 10 mg/kg) and chronic (1 day prior) regimen) was “effectively protected”. Moreover, in the data set on Akt, the “phosphorylated/active Akt” value was “significant increase”.

As for `CC(=O)[C@H]1CC[C@H]2[C@@H]3CCC4=CC(=O)CC[C@]4(C)[C@H]3CC[C@]12C` [progesterone], the “phosphothreonine immunoreactivity on the IP3R” value in the data set on IP3R is “increase”.

`N.N.N.N.N.N.N.N.N.N.N.N.N.N.[Cl-].[Cl-].[Cl-].[Cl-].[Cl-].[Cl-].[O-2].[O-2].[Ru+3].[Ru+3].[Ru+4]` [ruthenium red, reference compound]: the “block of channel activity” value at type 2 RyR (ruthenium red 20 μM) is on record as “blocked”.

As to calmodulin, the “effect on lack of Ca2+ inhibition of the channel” value in data set [1] (excess amounts, preliminary experiments) is on record as “did not change this behavior”.

heparin: in data set [1] (heparin 50 μg/ml), the “block of channel activity” value is recorded as “blocked”.
